Measured values as given in patent US6887896B1, “7-[(7-Alkoxy)-chrom-3-en-6-yl]-heptatrienoic acid and 7-[(3-alkoxy)-5,6-dihydronaphthalen-2-yl]-heptatrienoic acid derivatives having serum glucose reducing activity” (Allergan, Inc., priority 2003, dated 2005).

Assays:
RXRβ [1] = molecular target: T1, RXRβ (UniProt P28704); assay: holoreceptor transactivation assay, RXRβ; assay type: cell-based; conditions: for EC50: holoreceptor transactivation, read-out: RXR Trans. EC50 β; for RXR Trans. efficacy (number in parentheses) β: percentage compared to the standard compound
T1 sequence (P28704 1-520): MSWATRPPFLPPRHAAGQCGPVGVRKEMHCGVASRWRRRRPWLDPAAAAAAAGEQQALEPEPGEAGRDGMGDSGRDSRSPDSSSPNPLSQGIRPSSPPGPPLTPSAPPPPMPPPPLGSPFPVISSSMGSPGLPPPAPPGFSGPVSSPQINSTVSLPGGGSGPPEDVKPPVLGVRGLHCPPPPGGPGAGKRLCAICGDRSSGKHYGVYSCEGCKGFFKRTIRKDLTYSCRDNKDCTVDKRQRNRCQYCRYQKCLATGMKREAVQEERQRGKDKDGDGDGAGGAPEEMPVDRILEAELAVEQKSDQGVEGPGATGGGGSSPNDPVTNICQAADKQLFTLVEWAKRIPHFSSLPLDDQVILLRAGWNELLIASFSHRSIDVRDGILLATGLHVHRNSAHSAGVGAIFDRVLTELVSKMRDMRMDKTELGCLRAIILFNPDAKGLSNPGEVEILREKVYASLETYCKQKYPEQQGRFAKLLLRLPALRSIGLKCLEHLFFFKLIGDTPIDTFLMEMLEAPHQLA
Outline: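 Readout: EC50, nM, from receptor transactivation; efficacy = % of maximum vs standard cyclopropyl penta-2,4-dienoic acid retinoid. RXR data from holoreceptor format; RAR data from chimeric receptor format.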

RARγ = molecular target: T2, RARγ (Homo sapiens, UniProt P13631); assay: ligand binding assay, RARγ; conditions: for Ki: read-out: RAR Bind. Ki γ; for Kd: Table 9 (Formula F), read-out: RAR γ Kd
T2 sequence (P13631 1-454): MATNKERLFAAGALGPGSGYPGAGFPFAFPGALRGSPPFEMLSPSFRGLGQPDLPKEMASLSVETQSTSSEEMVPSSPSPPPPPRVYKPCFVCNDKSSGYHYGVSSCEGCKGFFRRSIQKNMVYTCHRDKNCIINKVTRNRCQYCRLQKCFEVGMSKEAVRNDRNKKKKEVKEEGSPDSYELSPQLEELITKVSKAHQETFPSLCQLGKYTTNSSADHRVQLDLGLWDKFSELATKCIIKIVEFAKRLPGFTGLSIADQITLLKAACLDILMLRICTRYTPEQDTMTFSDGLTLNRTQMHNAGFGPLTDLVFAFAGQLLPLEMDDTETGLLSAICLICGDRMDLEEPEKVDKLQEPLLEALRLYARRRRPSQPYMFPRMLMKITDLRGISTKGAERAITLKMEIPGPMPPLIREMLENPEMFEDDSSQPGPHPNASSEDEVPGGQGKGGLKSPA
Outline: (§1)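 Binding of compounds to several retinoid receptor subtypes was measured. Results are given as Ki values in nanomolar concentration, derived per Cheng et al.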

RXRα = molecular target: T3, RXRα (Homo sapiens, UniProt P19793); assay: ligand binding assay, RXRα; conditions: for Ki: read-out: RXR Bind Ki α; for Kd: Table 9 (Formula F), read-out: RXR α Kd
T3 construct: expressed in transfected cells
T3 sequence (P19793 1-462): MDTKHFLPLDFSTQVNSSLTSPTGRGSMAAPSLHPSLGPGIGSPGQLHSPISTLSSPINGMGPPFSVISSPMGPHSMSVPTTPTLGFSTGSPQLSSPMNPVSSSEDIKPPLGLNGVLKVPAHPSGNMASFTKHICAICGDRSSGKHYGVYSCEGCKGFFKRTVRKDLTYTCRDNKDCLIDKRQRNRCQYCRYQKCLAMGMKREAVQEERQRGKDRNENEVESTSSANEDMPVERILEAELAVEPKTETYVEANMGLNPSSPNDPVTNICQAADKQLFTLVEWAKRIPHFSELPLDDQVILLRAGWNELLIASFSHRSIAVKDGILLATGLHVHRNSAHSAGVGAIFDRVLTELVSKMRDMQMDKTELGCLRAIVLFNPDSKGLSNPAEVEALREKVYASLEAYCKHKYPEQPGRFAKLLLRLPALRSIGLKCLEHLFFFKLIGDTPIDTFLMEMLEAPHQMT
Outline: as §1

RXRβ [2] = molecular target: T1, RXRβ; assay: ligand binding assay, RXRβ; conditions: for Ki: read-out: RXR Bind Ki β; for Kd: Table 9 (Formula F), read-out: RXR β Kd
Outline: as §1

Row | EC50 (RXRβ [1]) [nM] | RXR Trans. efficacy (number in parentheses) β (RXRβ [1]) [%] | Ki (RARγ) [nM] | Ki (RXRα) [nM] | Ki (RXRβ [2]) [nM] | Kd (RARγ) [nM] | Kd (RXRα) [nM] | Kd (RXRβ [2]) [nM] | Compound
1 | 368 | 128 | 9200 | 35 | 347 |  |  |  | CCOc1cc2c(cc1\C(C)=C(F)/C=C/C(C)=C/C(=O)O)C=CCC2(C)C [Compound A-76, (2E,4E,6E)-7-(3-Ethoxy-5,5-dimethyl-5,6-dihydro-naphthalen-2-yl)-6-fluoro-3-methyl-octa-2,4.6-trienoic acid]
2 | 18 | 23 | 2200 | 3 | 19 |  |  |  | CCOc1cc2c(cc1\C(CC)=C(F)/C=C/C(C)=C/C(=O)O)C(CC)=CCC2(C)C [Compound A-78, (2E,4E,6E)-7-(3-Ethoxy-8-ethyl-5,5-dimethyl-5,6-dihydro-naphthalen-2-yl)-6-fluoro-3-methyl-nona-2,4,6-trienoic acid]
3 | 4 | 60 | 3500 | 2 | 13 |  |  |  | CCOc1cc2c(cc1\C(C)=C(F)/C=C/C(C)=C/C(=O)O)C(C(C)C)=CCC2(C)C [Compound A-79, (2E,4E,6E)-6-Fluoro-3-(4,4-dimethylethoxy-1-isopropyl-3,4-dihydronaphthalen-7-yl)-3-methyl-2.4,6-octa-trienoic acid]
4 | 4 | 41 | 1400 | 2 | 14 |  |  |  | CCOc1cc2c(cc1\C(C)=C(F)/C=C/C(C)=C/C(=O)O)C(C(C)(C)C)=CCC2(C)C [Compound A-82, (2E,4E,6E)-6-Fluoro-3-(4,4-dimethyl-6-ethoxy-1-tert-butyl-3,4 dihydronaphthalen-7-yl)-3-methyl-2,4,6-octa-trienoic acid]
5 | 7 | 17 | 698 | 2 | 12 |  |  |  | CCOc1cc2c(cc1\C(CC)=C(F)/C=C/C(C)=C/C(=O)O)C(C(C)(C)C)=CCC2(C)C [Compound A-83, (2E,4E,6E)-7-(8-tert-Butyl-3-ethoxy-5,5-dimethyl-5,6-dihydronaphthalen-2-yl)-6-fluoro-3-methyl-nona-2,4,6-trienoic acid]
6 | 2.2 | 68 |  |  |  | 1000 | 3 | 16 | CCOc1c(\C(C)=C(F)/C=C/C(C)=C/C(=O)O)cc2c(c1Br)C(C)(C)CC=C2C(C)C [Compound A-169, (2E,4E,6E)-7-(4-Bromo-3-ethoxy-8-isopropyl-5,5-dimethyl-5,6-dihydro-naphthalen-2-yl)-6-fluoro-3-methyl-octa-2.4,6-trienoic acid]
7 | 1 | 59 |  |  |  | 507 | 2 | 14 | CCOc1c(\C(CC)=C(F)/C=C/C(C)=C/C(=O)O)cc2c(c1Br)C(C)(C)CC=C2C(C)C [Compound A-170, (2E,4E,6E)-7-(4-Bromo-3-ethoxy-8-isopropyl-5,5-dimethyl-5,6-dihydro-naphthalen-2-yl)-6-fluoro-3-methyl-nona-2,4,6-trienoic acid]
8 | 3 | 30 |  |  |  | 272 | 2 | 15 | CCOc1c(\C(=C(F)/C=C/C(C)=C/C(=O)O)C(C)C)cc2c(c1Br)C(C)(C)CC=C2C(C)C [Compound A-171, (2E,4E,6E)-7-(4-Bromo-3-ethoxy-8-isopropyl-5,5-dimethyl-5,6-dihydro-naphthalen-2-yl)-6-fluoro-3.8-dimethyl-nona-2.4,6-trienoic acid]
9 | 83 | 39 |  |  |  | 834 | 8 | 41 | CC(/C=C/C(F)=C(/C)c1cc2c(c(Br)c1OC(C)C)C(C)(C)CC=C2C(C)C)=C\C(=O)O [Compound A-172, (2E,4E,6E)-7-(4-Bromo-3-isopropoxy-8-isopropyl-5,5-dimethyl-5,6-dihydro-naphthalen-2-yl)-6-fluoro-3-methyl-octa-2,4,6-trienoic acid]
10 | 7 | 25 |  |  |  | 1600 | 2 | 12 | CCOc1c(\C(C)=C(F)/C=C/C(C)=C/C(=O)O)cc2c(c1Br)C(C)(C)CC=C2C(C)(C)C [Compound A-174, (2E,4E,6E)-7-(4-Bromo-8-tert-butyl-3-ethoxy-5,5-dimethyl-5,6-dihydro-naphthalen-2-yl)-6-fluoro-3-methyl-octa-2,4,6-trienoic acid]
11 | 0.5 | 66 |  |  |  | 1200 | 2 | 12 | CCOc1c(\C(C)=C(F)/C=C/C(C)=C/C(=O)O)cc2c(c1Cl)C(C)(C)CC=C2C(C)C [Compound A-177, (2E,4E,6E)-7-(4-Chloro-3-ethoxy-8-isopropyl-5,5-dimethyl-5,6-dihydronaphthalen-2-yl)6-fluoro-3-methyl-octa-2,4,6-trienoic acid]
12 | 0.5 | 53 |  |  |  | 449 | 1 | 11 | CCOc1c(\C(CC)=C(F)/C=C/C(C)=C/C(=O)O)cc2c(c1Cl)C(C)(C)CC=C2C(C)C [Compound A-178, (2E,4E,6E)-7-(4-Chloro-3-ethoxy-8-isopropyl-5,5-dimethyl-5,6-dihydronaphthalen-2-yl)-6-fluoro-3-methyl-nona-2,4,6-trienoic acid]
